pIC50: −log10 of the molar value.
Biological target: T1, human CGT (Homo sapiens, UniProt Q16880)
T1 sequence (Q16880 21-541): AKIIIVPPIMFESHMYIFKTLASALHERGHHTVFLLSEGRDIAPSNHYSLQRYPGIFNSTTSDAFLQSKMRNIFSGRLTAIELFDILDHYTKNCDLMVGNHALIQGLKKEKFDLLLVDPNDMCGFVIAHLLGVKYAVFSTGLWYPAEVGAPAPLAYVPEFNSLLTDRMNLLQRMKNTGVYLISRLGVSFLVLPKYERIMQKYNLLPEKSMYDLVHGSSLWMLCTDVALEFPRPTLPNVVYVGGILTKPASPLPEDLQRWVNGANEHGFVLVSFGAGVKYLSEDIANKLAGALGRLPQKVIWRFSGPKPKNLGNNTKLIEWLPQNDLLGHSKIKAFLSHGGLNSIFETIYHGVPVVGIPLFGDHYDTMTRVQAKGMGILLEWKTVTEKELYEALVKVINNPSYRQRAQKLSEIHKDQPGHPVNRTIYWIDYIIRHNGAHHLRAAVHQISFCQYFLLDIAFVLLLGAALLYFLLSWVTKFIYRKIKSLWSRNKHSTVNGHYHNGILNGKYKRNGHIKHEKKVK
Assay: CGT Enzyme Assay (Biological Example 2, RapidFire/MS/MS method with 0.01% Tween 80 added)
Assay type: biochemical
Settings: enzymatic assay, CHO/CGT lysate
Procedure: Full-length human CGT cDNA was cloned into the BamH1/Xho1 site of pcDNA3.1 (+) mammalian expression vector (V90-20, Invitrogen, Carlsbad, Calif.) and the plasmid was transfected into Chinese hamster ovary (CHO) cells. Lysate was prepared using M-PER (Mammalian Protein Extraction Reagent, ThermoFisher Scientific, Grand Island, N.Y.) in the presence of a protease inhibitor cocktail (P8340, Sigma, Saint Louis, Mo.). Each 100 mm dish (100% confluent, approximately 1×10^7 cells) was lysed with 250 μL of M-PER containing protease inhibitors. Protein concentration was determined using a Pierce BCA protein assay kit (ThermoFisher Scientific). […] The final concentration of DMSO was 0.5% in both compound-treated and mock-treated samples. Each individual reaction was diluted with 80 μL of methanol:acetronitrile (1:3) containing 5 μM N-docdecanoyl-NBD-galactosylceramide (internal standard) to stop the reaction. 200 μL H2O:acetonitile (1:1) was added to precipitate the protein. After sufficient mixing, the plates were centrifuged at 2469 g for 38 minutes, 200 μl of supernatant was transferred to a LC-MS 96-deep well plate and a second spin was performed at 2469 g for 10 minutes. The final supernatant was injected in triplicate for RapidFire/MS/MS analysis.
The quantitative analysis of C6-NBD-dihydro-ceramide and C6-NBD-dihydro-galactosylceramide was performed on a Rapid Fire 360 high-throughput mass spectrometry system (Agilent Technologies, Palo Alto, Calif.) coupled with a API4000^+ triple quadrupole mass spectrometer (Applied Biosystems, Concord, Ontario, Canada). RapidFire software packages, including RapidFire Control panel, RapidFire UI and RapidFire Integrator (Agilent Technologies), were used to control the RapidFire instrument and to process data. Analyst 1.6.2 software packages (Applied Biosystems) were used to control the MS system and acquire MS data. 10 μL of sample was loaded on a micro-scale C4 solid-phase extraction (SPE) cartridge (Agilent Technologies) and salts were removed using water supplemented with 0.1% formic acid at the flow rate of 1.5 mL/min for 3 sec. C6-NBD-dihydro-ceramide and C6-NBD-dihydro-galactosylceramide were co-eluted into the mass spectrometer using acetonitrile containing 0.1% formic acid at the flow rate of 1.0 mL/min for 3 sec. The total cycle time of one injection was 8 secs. The MS/MS detection was performed in ESI negative mode.
The C6-NBD-dihydro-galactosylceramide reading was normalized first by dividing the peak area of C6-NBD-dihydro-galactosylceramide by the peak area of the internal standard, N-docdecanoyl-NBD-galactosylceramide.

Q: `CC1(C)[C@@H](c2cccc(OC(F)(F)F)c2)N(c2ccc(C(F)(F)F)cc2)C(=O)N1c1ccc(C(F)(F)F)cc1` [Example 20-1, (R)-4,4-dimethyl-5-(3-(trifluoromethoxy)phenyl)-1,3-bis(4-(trifluoromethyl)phenyl)imidazolidin-2-one] was tested. Which pIC50 did it give?
A: Its pIC50 is > 6.00.

Q: `N#Cc1ccc(N2C(=O)N(c3ccc(Cl)cc3)C3(COC3)[C@H]2c2cccc(OC(F)(F)F)c2)cc1` [Example 47-1, (R)-4-(5-(4-chlorophenyl)-6-oxo-8-(3-(trifluoromethoxy)phenyl)-2-oxa-5,7-diazaspiro[3.4]octan-7-yl)benzonitrile] was tested. Which pIC50 did it give?
A: The pIC50 was 4.52 to 5.00.

Q: With `CCC[C@@]1(C)[C@@H](c2cccc(OC(F)(F)F)c2)N(c2ccc(C#N)cc2)C(=O)N1c1ccc(C#N)cc1` [Example 52-6, 4,4′-((4S,5R)-4-methyl-2-oxo-4-propyl-5-(3-(trifluoromethoxy)phenyl)imidazolidine-1,3-diyl)dibenzonitrile] as the compound, how does the pIC50 read?
A: The pIC50 was 4.52 to 5.00.

Q: How did the pIC50 turn out when `CC1(C)[C@H](c2cccc(OC(F)(F)F)c2)N(c2ccc(C#N)cc2)C(=O)N1c1ccc(Cl)cc1` [Example 40-2, (S)-4-(3-(4-chlorophenyl)-4,4-dimethyl-2-oxo-5-(3-(trifluoromethoxy)phenyl)imidazolidin-1-yl)benzonitrile] was run?
A: The pIC50 was > 6.00.

Q: With `CC1(C)C(c2cccc(OC(F)F)c2)N(c2ccc(Cl)cc2)C(=O)N1c1ccc(Cl)cc1` (stereo not drawn) [Example 9] as the compound, how does the pIC50 read?
A: Its pIC50 is > 6.00.

Q: How did the pIC50 turn out when `C[C@H]1[C@H](c2cccc(OC(F)(F)F)c2)N(c2ccc(Br)cc2)C(=O)N1c1ccc(Br)cc1` [Example 11-2, (4S,5S)-1,3-bis(4-bromophenyl)-4-methyl-5-(3-(trifluoromethoxy)phenyl)imidazolidin-2-one] was run?
A: The pIC50 was > 6.00.

Q: With `O=C1N(c2ccc(Cl)cc2)[C@H]2CCC[C@@]2(c2cccc(OC(F)(F)F)c2)N1c1ccc(Cl)cc1` [Example 12-1, (3aS,6aS)-1,3-bis(4-chlorophenyl)-3a-(3-(trifluoromethoxy)phenyl)hexahydrocyclopenta[d]imidazol-2(1H)-one] as the compound, how does the pIC50 read?
A: The pIC50 was 5.00 to 6.00.

Q: `Cc1ccc(N2C(=O)N(c3ccc(C)cc3)C3(COC3)[C@H]2c2cccc(C#N)c2)cc1` [Example 32-1, (R)-3-(6-oxo-5,7-di-p-tolyl-2-oxa-5,7-diazaspiro[3.4]octan-8-yl)benzonitrile] was tested. Which pIC50 did it give?
A: Its pIC50 is 4.52 to 5.00.

Q: `CC[C@]1(C)[C@@H](c2cccc(C#N)c2)N(c2ccc(Cl)cc2)C(=O)N1c1ccc(Cl)cc1` [Example 34-2, 3-((4R,5R)-1,3-bis(4-chlorophenyl)-5-ethyl-5-methyl-2-oxoimidazolidin-4-yl)benzonitrile] was tested. Which pIC50 did it give?
A: The pIC50 was 5.00 to 6.00.

Q: With `C[C@]1(C(F)(F)F)[C@@H](c2cccc(OC(F)(F)F)c2)N(c2ccc(C#N)cc2)C(=O)N1c1ccc(C#N)cc1` [Example 39-2, 4,4′-((4R,5R)-4-methyl-2-oxo-5-(3-(trifluoromethoxy)phenyl)-4-(trifluoromethyl)imidazolidine-1,3-diyl)dibenzonitrile] as the compound, how does the pIC50 read?
A: Its pIC50 is 4.52 to 5.00.

Q: How did the pIC50 turn out when `CC[C@@]1(C)[C@H](c2cccc(OC(F)(F)F)c2)N(c2ccc(C#N)cc2)C(=O)N1c1ccc(C#N)cc1` [Example 51-5, 4,4′-((4S,5S)-4-ethyl-4-methyl-2-oxo-5-(3-(trifluoromethoxy)phenyl)imidazolidine-1,3-diyl)dibenzonitrile] was run?
A: The pIC50 was 5.00 to 6.00.

Q: How did the pIC50 turn out when `CC[C@@]1(C)[C@H](c2cccc(C#N)c2)N(c2ccc(Cl)cc2)C(=O)N1c1ccc(Cl)cc1` [Example 34-1, 3-((4S,5S)-1,3-bis(4-chlorophenyl)-5-ethyl-5-methyl-2-oxoimidazolidin-4-yl)benzonitrile] was run?
A: The pIC50 was > 6.00.

Q: With `CC1(C)[C@H](c2cccc(Cl)c2)N(c2ccc(Cl)cc2)C(=O)N1c1ccc(Cl)cc1` [Example 8-2, (S)-5-(3-chlorophenyl)-1,3-bis(4-chlorophenyl)-4,4-dimethylimidazolidin-2-one] as the compound, how does the pIC50 read?
A: Its pIC50 is > 6.00.

Q: How did the pIC50 turn out when `N#Cc1cccc([C@@]23CCCC[C@@H]2N(c2ccc(Cl)cc2)C(=O)N3c2ccc(Cl)cc2)c1` [Example 14-2, 3-((3aS,7aS)-1,3-bis(4-chlorophenyl)-2-oxooctahydro-3aH-benzo[d]imidazol-3a-yl)benzonitrile] was run?
A: The pIC50 was 4.52 to 5.00.

Q: `CC1(C)[C@H](c2cccc(OC(F)(F)F)c2)N(c2cccc(Cl)c2)C(=O)N1c1cccc(Cl)c1` [Example 28-2, (S)-1,3-bis(3-chlorophenyl)-4,4-dimethyl-5-(3-(trifluoromethoxy)phenyl)imidazolidin-2-one] was tested. Which pIC50 did it give?
A: The pIC50 was > 6.00.

Q: With `CC1(C)[C@@H](c2cccc(C#N)c2)N(c2ccc(C(F)(F)F)cc2)C(=O)N1c1ccc(C(F)(F)F)cc1` [Example 24-1, (R)-3-(5,5-dimethyl-2-oxo-1,3-bis(4-(trifluoromethyl)phenyl)imidazolidin-4-yl)benzonitrile] as the compound, how does the pIC50 read?
A: The pIC50 was > 6.00.

Q: `CC[C@@]1(C)[C@@H](c2cccc(C#N)c2)N(c2ccc(Cl)cc2)C(=O)N1c1ccc(Cl)cc1` [Example 34-3, 3-((4R,5S)-1,3-bis(4-chlorophenyl)-5-ethyl-5-methyl-2-oxoimidazolidin-4-yl)benzonitrile] was tested. Which pIC50 did it give?
A: Its pIC50 is > 6.00.

Q: `Cc1ccc(N2C(=O)N(c3ccc(C)cc3)C(C)(C)[C@@H]2c2cccc(OC(F)(F)F)c2)cc1` [Example 21-2, (S)-4,4-dimethyl-1,3-di-p-tolyl-5-(3-(trifluoromethoxy)phenyl)imidazolidin-2-one] was tested. Which pIC50 did it give?
A: Its pIC50 is > 6.00.

Q: How did the pIC50 turn out when `CC[C@@]1(C)[C@@H](c2cccc(OC(F)(F)F)c2)N(c2ccc(Cl)cc2)C(=O)N1c1ccc(Cl)cc1` [Example 19-4, (4S,5R)-1,3-bis(4-chlorophenyl)-4-ethyl-4-methyl-5-(3-(trifluoromethoxy)phenyl)imidazolidin-2-one] was run?
A: The pIC50 was 5.00 to 6.00.

Q: How did the pIC50 turn out when `CC1(C)[C@@H](c2cccc(OC(F)(F)F)c2)N(c2cccc(Cl)c2)C(=O)N1c1cccc(Cl)c1` [Example 28-1, (R)-1,3-bis(3-chlorophenyl)-4,4-dimethyl-5-(3-(trifluoromethoxy)phenyl)imidazolidin-2-one] was run?
A: The pIC50 was 4.52 to 5.00.

Q: With `COC[C@]1(C)[C@H](c2cccc(OC(F)(F)F)c2)N(c2ccc(Cl)cc2)C(=O)N1c1ccc(Cl)cc1` [Example 37-2, (4S,5S)-1,3-bis(4-chlorophenyl)-4-(methoxymethyl)-4-methyl-5-(3-(trifluoromethoxy)phenyl)imidazolidin-2-one] as the compound, how does the pIC50 read?
A: Its pIC50 is > 6.00.

Q: How did the pIC50 turn out when `CC1(C)[C@@H](c2cccc(OC(F)(F)F)c2)N(c2ccc(C#N)cc2)C(=O)N1c1ccc(Cl)cc1` [Example 40-1, (R)-4-(3-(4-chlorophenyl)-4,4-dimethyl-2-oxo-5-(3-(trifluoromethoxy)phenyl)imidazolidin-1-yl)benzonitrile] was run?
A: Its pIC50 is 4.52 to 5.00.

Q: With `CCC[C@]1(C)[C@H](c2cccc(OC(F)(F)F)c2)N(c2ccc(Cl)cc2)C(=O)N1c1ccc(Cl)cc1` [Example 22-3, (4R,5S)-1,3-bis(4-chlorophenyl)-4-methyl-4-propyl-5-(3-(trifluoromethoxy)phenyl)imidazolidin-2-one] as the compound, how does the pIC50 read?
A: The pIC50 was > 6.00.

Q: With `CCC[C@]1(C)[C@@H](c2cccc(C#N)c2)N(c2ccc(Cl)cc2)C(=O)N1c1ccc(Cl)cc1` [Example 33-1, 3-((4R,5R)-1,3-bis(4-chlorophenyl)-5-methyl-2-oxo-5-propylimidazolidin-4-yl)benzonitrile] as the compound, how does the pIC50 read?
A: The pIC50 was > 6.00.

Q: `Cc1ccc(N2C(=O)N(c3ccc(C#N)cc3)C3(COC3)[C@@H]2c2cccc(C#N)c2)cc1` [Example 57-2, (S)-3-(5-(4-cyanophenyl)-6-oxo-7-(p-tolyl)-2-oxa-5,7-diazaspiro[3.4]octan-8-yl)benzonitrile] was tested. Which pIC50 did it give?
A: The pIC50 was > 6.00.

Q: How did the pIC50 turn out when `CC1(C)[C@H](c2cccc(C#N)c2)N(c2ccc(C(F)(F)F)cc2)C(=O)N1c1ccc(C(F)(F)F)cc1` [Example 24-2, (S)-3-(5,5-dimethyl-2-oxo-1,3-bis(4-(trifluoromethyl)phenyl)imidazolidin-4-yl)benzonitrile] was run?
A: Its pIC50 is 4.52 to 5.00.

Q: With `CC1(C)[C@@H](c2cccc(OC(F)F)c2)N(c2ccc(Cl)cc2)C(=O)N1c1ccc(Cl)cc1` [Example 9-1, (R)-1,3-bis(4-chlorophenyl)-5-(3-(difluoromethoxy)phenyl)-4,4-dimethylimidazolidin-2-one] as the compound, how does the pIC50 read?
A: Its pIC50 is 4.52 to 5.00.

— patent US20190134005A1 (BioMarin Pharmaceutical Inc., priority 2016, published 2019)
